Among the test systems are CHRF288-11; CMK; CMS; M07e; ML-2; MOLM-13; MV4-11; U937.
Holding throughout (design): species or system AML cell lines (8); Primary HTS, single concentration about 10 uM, Cell Titer Glo viability; log10 luminescence, per cent inhibition relative to cycloheximide control
Common to all, as to details: 72 h, relative to cycloheximide control, log10 luminescence, inhibitor
(ATP-based viability assays read luminescence as a measure of living cells.)

Each structure is given as a SMILES string. Counter-ions that a name gives are not always drawn. Like-named read-outs stand apart in the source and are kept apart here.

For `CCS(=O)(=O)c1ccc(OC)c(Nc2nccc(N(C)c3ccc4c(C)n[nH]c4c3)n2)c1` [SJ000573103-1, U20513/4/2], the CHRF288-11 %inh in the test on CHRF288-11 is listed as 5.806%. Moreover, the CMK %inh in the test with CMK was found to be 6.86%. The CMS %inh in the test on CMS is on record as 9.95%. Besides, in the test with M07e, the M07e %inh came to 2.221%. Moreover, the ML-2 %inh with ML-2 is reported as -1.801%. In addition, in the test on MOLM-13, the MOLM-13 %inh is on record as 9.892%. Besides, the MV4-11 %inh in the test on MV4-11 came out at 5.714%. In addition, in the test with U937, the U937 %inh turned out to be 1.879%.

Turning to `CCn1c(=O)c(Oc2ccc(F)cc2F)cc2cnc(NC3CCOCC3)nc21` [SJ000581151-1], the CHRF288-11 %inh with CHRF288-11 is listed as -1.135%. Further, the CMK %inh in the test on CMK turned out to be 8.128%. For the same molecule, in the test with CMS, the CMS %inh is recorded as -2.221%. Besides, the M07e %inh in the test with M07e was determined as 11.45%. Also, in the test on ML-2, the ML-2 %inh was -1.057%. Besides, the MOLM-13 %inh in the test on MOLM-13 is 2.299%. Moreover, in the test on MV4-11, the MV4-11 %inh amounted to 2.556%. Besides, the U937 %inh with U937 worked out at 0.6844%.

For `Cc1cccc(Nc2ccncc2S(=O)(=O)NC(=O)NC(C)C)c1` [SJ000286085-4, TORSEMIDE], in the test with CHRF288-11 (CHRF288-11 %inh, 10 µM), the CHRF288-11 %inh came to 121.5%. Further, the CMK %inh with CMK (CMK %inh, 10 µM) is given as 4.671%. Besides, the CMS %inh with CMS (CMS %inh, 10 µM) is listed as -0.4672%. In the test with M07e (M07e %inh, 10 µM), the M07e %inh is on record as 11.12%. Also, the ML-2 %inh in the test with ML-2 (ML-2 %inh, 10 µM) was -0.2644%. Further, the MOLM-13 %inh with MOLM-13 (MOLM-13 %inh, 10 µM) is recorded as 0.9883%. The MV4-11 %inh in the test on MV4-11 (MV4-11 %inh, 10 µM) was found to be 3.27%. Besides, the U937 %inh with U937 (U937 %inh, 10 µM) is listed as 0.4443%.

Turning to `COc1ccc(-c2ccc3c(N4CCOC[C@@H]4C)nc(N4CCOC[C@@H]4C)nc3n2)cc1CO` [SJ000571306-4, 1009298-09-2 | AZD8055 | | AZD8055], the CHRF288-11 %inh with CHRF288-11 turned out to be 63.41%. Moreover, the CMK %inh in the test with CMK is reported as 103.1%. For the same molecule, in the test with CMS, the CMS %inh is 58.27%. In addition, in the test on M07e, the M07e %inh was determined as 41.99%. Moreover, the ML-2 %inh in the test with ML-2 is reported as 20%. Also, the MOLM-13 %inh in the test with MOLM-13 was determined as 34.83%. Further, the MV4-11 %inh in the test with MV4-11 is on record as 44.46%. The U937 %inh in the test with U937 worked out at 53.04%.

Take `Cn1cc(C2=C(N3CCOCC3)C(=O)NC2=O)c2ccccc21` [SJ000581016-1]: in the test with CHRF288-11, the CHRF288-11 %inh is -0.4853%. Besides, the CMK %inh in the test on CMK is -3.99%. Besides, the CMS %inh in the test with CMS stood at 2.558%. Moreover, the M07e %inh with M07e is listed as -1.546%. The ML-2 %inh with ML-2 is listed as 1.058%. Moreover, the MOLM-13 %inh in the test with MOLM-13 is listed as -0.4077%. In the test on MV4-11, the MV4-11 %inh was -3.16%. For the same molecule, the U937 %inh with U937 is reported as -0.03629%.

As for `CN1CCC(n2cnc(-c3ccc(F)cc3)c2-c2ccnc(N)n2)CC1` [SJ000573221-1, JB19236-039E1], the CHRF288-11 %inh in the test with CHRF288-11 is 35.57%. Further, the CMK %inh with CMK came to 38.27%. The CMS %inh in the test on CMS is 5.129%. Moreover, the M07e %inh with M07e is 20.04%. Also, the ML-2 %inh in the test on ML-2 was found to be 19.36%. Moreover, in the test with MOLM-13, the MOLM-13 %inh came out at 26.24%. Further, the MV4-11 %inh with MV4-11 is given as 16.49%. Besides, the U937 %inh with U937 is 13.28%.

Regarding `COc1ccc(N2Cc3cnc(Nc4ccccc4)nc3N([C@@H]3CC[C@@H](O)C3)C2=O)cc1` [SJ000581169-1], the CHRF288-11 %inh with CHRF288-11 is 84.91%. In addition, the CMK %inh with CMK came out at 31.32%. Besides, the CMS %inh in the test on CMS is -0.5577%. For the same molecule, in the test on M07e, the M07e %inh turned out to be 3.499%. Moreover, the ML-2 %inh in the test with ML-2 came to 3.259%. For the same molecule, the MOLM-13 %inh with MOLM-13 worked out at 15.09%. Moreover, the MV4-11 %inh with MV4-11 is given as 9.017%. Besides, the U937 %inh in the test on U937 amounted to 3.756%.

Turning to `Clc1ccc(C(Cn2ccnc2)OCc2ccsc2Cl)c(Cl)c1` (single isomer, unassigned) [SJ000556739-1, TIOCONAZOLE], the CHRF288-11 %inh in the test on CHRF288-11 (CHRF288-11 %inh, 10 µM) is recorded as 35.73%. The CMK %inh in the test with CMK (CMK %inh, 10 µM) was 41.48%. Further, in the test on CMS (CMS %inh, 10 µM), the CMS %inh turned out to be 7.938%. The M07e %inh in the test on M07e (M07e %inh, 10 µM) is 14.34%. For the same molecule, the ML-2 %inh with ML-2 (ML-2 %inh, 10 µM) came to 9.708%. The MOLM-13 %inh in the test on MOLM-13 (MOLM-13 %inh, 10 µM) came to 23.12%. Besides, the MV4-11 %inh with MV4-11 (MV4-11 %inh, 10 µM) was 16.99%. The U937 %inh in the test on U937 (U937 %inh, 10 µM) is recorded as 20.14%.

Regarding `[O-][S+]1CCN(Cc2ccc(-c3ccc4ncnc(Nc5ccc(OCc6ccccc6)c(Cl)c5)c4c3)o2)CC1` [SJ000573105-1, U14859/143/2], in the test on CHRF288-11, the CHRF288-11 %inh was 0.5474%. For the same molecule, in the test with CMK, the CMK %inh amounted to 4.729%. Further, the CMS %inh in the test on CMS is -1.021%. For the same molecule, the M07e %inh with M07e is listed as -0.2789%. In the test on ML-2, the ML-2 %inh was -0.9946%. For the same molecule, the MOLM-13 %inh with MOLM-13 amounted to 4.138%. For the same molecule, the MV4-11 %inh with MV4-11 amounted to 5.18%. In addition, the U937 %inh in the test on U937 came to 1.842%.

Regarding `OC(Cn1cncn1)(Cn1cncn1)c1ccc(F)cc1F` [SJ000286024-3, FLUCONAZOLE], in the test with CHRF288-11, the CHRF288-11 %inh is -3.189%. In addition, the CMK %inh with CMK is listed as -0.02108%. In addition, the CMS %inh in the test with CMS was -4.097%. In addition, the M07e %inh with M07e is -2.445%. In addition, in the test on ML-2, the ML-2 %inh is -1.511%. Also, the MOLM-13 %inh in the test on MOLM-13 was -1.868%. The MV4-11 %inh with MV4-11 turned out to be 0.2312%. Besides, the U937 %inh in the test with U937 turned out to be 1.624%.

Turning to `CCS(=O)(=O)c1ccc(OC)c(Nc2ncc(-c3cccc(OC)c3)o2)c1` [SJ000573358-1, U15747/93/1], the CHRF288-11 %inh in the test with CHRF288-11 was determined as 1.123%. In addition, the CMK %inh in the test on CMK worked out at 8.053%. Further, in the test on CMS, the CMS %inh was -1.141%. Moreover, the M07e %inh with M07e is on record as -2.224%. The ML-2 %inh in the test on ML-2 turned out to be 1.703%. Also, in the test with MOLM-13, the MOLM-13 %inh is 73.64%. Further, in the test on MV4-11, the MV4-11 %inh was 70.44%. In addition, in the test with U937, the U937 %inh is listed as 5.914%.

For `CCS(=O)(=O)c1ccc(OC)c(Nc2ncc(-c3cccc(F)c3)o2)c1` [SJ000573008-1, U15747/41/2], the CHRF288-11 %inh with CHRF288-11 was -0.1874%. Moreover, in the test with CMK, the CMK %inh is 0.9043%. Moreover, in the test with CMS, the CMS %inh stood at 0.7614%. Moreover, in the test on M07e, the M07e %inh turned out to be 1.435%. Also, the ML-2 %inh in the test with ML-2 is 0.9608%. The MOLM-13 %inh in the test on MOLM-13 came to 34.16%. For the same molecule, the MV4-11 %inh in the test with MV4-11 amounted to 41.43%. For the same molecule, the U937 %inh in the test on U937 was 1.214%.

Regarding `CNC(=O)c1cncc(/C=C/c2c(Cl)cccc2Cl)c1` [SJ000573258-1, U12068/57/2], the CHRF288-11 %inh in the test on CHRF288-11 is on record as -0.5271%. For the same molecule, the CMK %inh in the test on CMK is reported as 4.903%. In addition, the CMS %inh with CMS came to 3.911%. Moreover, the M07e %inh with M07e was 7.169%. For the same molecule, in the test with ML-2, the ML-2 %inh was -0.3801%. Also, in the test with MOLM-13, the MOLM-13 %inh is on record as 2.751%. Besides, the MV4-11 %inh in the test on MV4-11 was determined as 3.453%. Also, the U937 %inh in the test with U937 worked out at 3.831%.

As for `CCN[C@H]1C[C@H](C)S(=O)(=O)c2sc(S(N)(=O)=O)cc21` [SJ000287570-2, DORZOLAMIDE HYDROCHLORIDE], in the test with CHRF288-11, the CHRF288-11 %inh is -4.447%. In addition, the CMK %inh in the test on CMK worked out at 0.1634%. The CMS %inh in the test with CMS is recorded as -2.24%. In the test on M07e, the M07e %inh was -0.4811%. The ML-2 %inh with ML-2 is listed as -0.8167%. Besides, the MOLM-13 %inh with MOLM-13 worked out at 5.665%. Also, the MV4-11 %inh with MV4-11 is listed as -1.46%. In addition, the U937 %inh in the test on U937 was found to be 2.321%.

For `O=C1NC(=NCCc2cccc(F)c2)S/C1=C\c1ccc2ncccc2c1` [SJ000581129-1], the CHRF288-11 %inh in the test with CHRF288-11 worked out at 23.25%. The CMK %inh in the test on CMK is on record as 94.55%. Also, in the test on CMS, the CMS %inh is 28.27%. For the same molecule, in the test on M07e, the M07e %inh was found to be 27.94%. The ML-2 %inh in the test on ML-2 was 47.36%. The MOLM-13 %inh with MOLM-13 was 21.32%. Besides, the MV4-11 %inh in the test on MV4-11 was determined as 43.95%. Moreover, in the test with U937, the U937 %inh was determined as 84.57%.

Turning to `CCCS(=O)(=O)Nc1ccc(F)c(C(=O)c2c[nH]c3ncc(-c4ccc(Cl)cc4)cc23)c1F` [SJ000574274-1, VEMURAFENIB | PLX-4032 | R-7204 | RG-7204 | RO-5185426 | PLX4032 | RG7204 | VEMURAFENIB (PLX4032, RG7204)], the CHRF288-11 %inh in the test with CHRF288-11 is reported as -2.721%. In the test with CMK, the CMK %inh is 1.427%. In the test with CMS, the CMS %inh is listed as 1.477%. Also, the M07e %inh with M07e was -0.8043%. The ML-2 %inh in the test with ML-2 is reported as -0.6517%. Also, in the test with MOLM-13, the MOLM-13 %inh is -2.361%. Also, in the test on MV4-11, the MV4-11 %inh was -4.805%. Also, the U937 %inh in the test with U937 was -0.9604%.

Values taken from PMC6522510 (Nature Communications, 2019).
